According to patent publication US20250127828A1, “BACILLUS […] AND COMPOSITION FOR PREVENTING, TREATING, OR IMPROVING TU[…] SAME” (priority 2023, published 2025):

Key:
[1] = system: M. tuberculosis XDR strain; format: in vivo, Mycobacterium tuberculosis
[2] = system: M. tuberculosis XDR strain; format: cell-based, Mycobacterium tuberculosis; details: infected Raw 264.7 cells, 3 days; effect only at this very high concentration
[3] = system: M. tuberculosis; experiment: Lung granuloma formation and immune response analysis in both tuberculosis mouse models; format: in vivo, Mycobacterium tuberculosis
[4] = system: M. tuberculosis H37Rv; experiment: In vitro macrophage infection model, H37Rv, CFU analysis; format: cell-based, Mycobacterium tuberculosis; details: infected Raw 264.7 cells, 3 days
[5] = system: M. tuberculosis XDR strain; format: in vivo, Mycobacterium tuberculosis; details: latent model, 30 mg/kg

Compound: Lactobacillus
- mortality / survival until the end of the experiment ([1]; Balb/c mice, high-dose XDR lung inhalation, probiotics by lung inhalation): died

Compound: CO[C@H]1/C=C/O[C@@]2(C)Oc3c(C)c(O)c4c(O)c(c(/C=N/N5CCN(C)CC5)c(O)c4c3C2=O)NC(=O)/C(C)=C\C=C\[C@H](C)[C@H](O)[C@@H](C)[C@@H](O)[C@@H](C)[C@H](OC(C)=O)[C@@H]1C [RIF, rifampicin]
- concentration with inhibitory effect against XDR strains [2]: 100 µg/mL
- survival rate ([1]; in vivo): 32.2%

Compound: NNC(=O)c1ccncc1 [INH, isoniazid]
- granuloma formation in the lungs compared to infected control mice [3]: no significant reduction
- concentration showing significant effects against H37Rv [4]: 1 μg/mL or 10 μg/mL
- effect on number of M. tuberculosis in the lungs [5]: significantly reduced
- concentration with inhibitory effect against XDR strains [2]: 100 µg/mL
- lung species diversity (Shanon-based alpha diversity) ([1]; in vivo): worsened the severity
- occupancy of M. tuberculosis in the lungs (16S rRNA gene-based lung metagenomics) compared to the infected control group ([1]; in vivo): did not decrease
- survival rate ([1]; in vivo): 16.6%
